# Test results as given in patent US9771370B2, “Compounds for the inhibition of indoleamine-2,3-dioxygenase” (Merck Patent GmbH, priority 2014, dated 2017).
# Target: Recombinant human IDO (Homo sapiens, UniProt P14902)
# Experiment: Bridge-IT tryptophan fluorescence assay of human IDO-1 inhibition
# Assay type: biochemical
# Details: recombinant human IDO 7.5 nM, L-tryptophan
# Summary of the method: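 One variant ran L-Trp at 100 μM for 90 min at 37 °C. The other pre-incubated compound for 30 min at 25 °C, then ran 50 μM L-Trp for 60 min at 25 °C.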
# Sequence of Recombinant human IDO (P14902 whole entry): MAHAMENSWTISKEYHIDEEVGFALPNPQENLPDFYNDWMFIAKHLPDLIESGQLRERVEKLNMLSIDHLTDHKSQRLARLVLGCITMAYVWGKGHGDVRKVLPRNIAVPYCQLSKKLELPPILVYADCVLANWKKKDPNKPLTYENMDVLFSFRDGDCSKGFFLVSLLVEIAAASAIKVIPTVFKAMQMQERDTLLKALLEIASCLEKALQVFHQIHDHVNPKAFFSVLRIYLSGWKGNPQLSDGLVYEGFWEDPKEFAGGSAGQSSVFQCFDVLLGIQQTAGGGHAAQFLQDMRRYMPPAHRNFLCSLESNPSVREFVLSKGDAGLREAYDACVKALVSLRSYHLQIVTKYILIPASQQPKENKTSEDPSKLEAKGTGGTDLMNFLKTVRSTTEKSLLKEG
row,Compound,IC50 [nM]
1,"OC1CCC(F)(CCC2c3c(Cl)cccc3-c3cncn32)CC1 (single isomer, unassigned) [Compound 71c, 4-[2-[6-chloro-5H-imidazo[4,3-a]isoindol-5-yl]ethyl]-4-fluorocyclohexan-1-ol]",> 1000
2,"FC1(F)CCC(F)(CCC2c3c(Cl)cccc3-c3cncn32)CC1 (single isomer, unassigned) [Compound 72a, 6-chloro-5-[2-(1,4,4-trifluorocyclohexyl)ethyl]-5H-imidazo[4,3-a]isoindole]",> 1000
3,"FC1(CCC2c3nc(C(F)(F)F)ccc3-c3cncn32)CCCCC1 (single isomer, unassigned) [Compound 76a, 7-[2-(1-fluorocyclohexyl)ethyl]-10-(trifluoromethyl)-4,6,9-triazatricyclo[6.4.0.0^[2,6]]dodeca-1(8),2,4,9,11-pentaene]",> 1000
4,"FC1(CCC2c3nc(C(F)(F)F)ccc3-c3cncn32)CCCCC1 (single isomer, unassigned) [Compound 76b, 7-[2-(1-fluorocyclohexyl)ethyl]-10-(trifluoromethyl)-4,6,9-triazatricyclo[6.4.0.0^[2,6]]dodeca-1(8),2,4,9,11-pentaene]",> 1000
5,"OC(CC1c2nc(C(F)(F)F)ccc2-c2cncn21)C1CCC(F)(F)CC1 (single isomer, unassigned) [Compound 77a, 1-(4,4-difluorocyclohexyl)-2-[10-(trifluoromethyl)-4,6,9-triazatricyclo[6.4.0.0^[2,6]]dodeca-1(8),2,4,9,11-pentaen-7-yl]ethan-1-ol]",> 1000
6,"OC(CC1c2nc(C(F)(F)F)ccc2-c2cncn21)C1CCC(F)(F)CC1 (single isomer, unassigned) [Compound 77b, 1-(4,4-difluorocyclohexyl)-2-[10-(trifluoromethyl)-4,6,9-triazatricyclo[6.4.0.0^[2,6]]dodeca-1(8),2,4,9,11-pentaen-7-yl]ethan-1-ol]",> 1000
7,"OC(CC1c2nc(C(F)(F)F)ccc2-c2cncn21)C1CCC(F)(F)CC1 (single isomer, unassigned) [Compound 77c, 1-(4,4-difluorocyclohexyl)-2-[10-(trifluoromethyl)-4,6,9-triazatricyclo[6.4.0.0^[2,6]]dodeca-1(8),2,4,9,11-pentaen-7-yl]ethan-1-ol]",> 1000
8,"NC(=O)C1CCC(F)(CCC2c3ccccc3-c3cncn32)CC1 (single isomer, unassigned) [Compound 79a, 4-fluoro-4-[2-[5H-imidazo[4,3-a]isoindol-5-yl]ethyl]cyclohexane-1-carboxamide]",> 1000
9,"NC(=O)C1CCC(F)(CCC2c3ccccc3-c3cncn32)CC1 (single isomer, unassigned) [Compound 79b, 4-fluoro-4-[2-[5H-imidazo[4,3-a]isoindol-5-yl]ethyl]cyclohexane-1-carboxamide]",> 1000
10,"O=C(O)C1CCC(F)(CCC2c3c(F)cccc3-c3cncn32)CC1 (single isomer, unassigned) [Compound 80b, 4-fluoro-4-(2-[6-fluoro-5H-imidazo[4,3-a]isoindol-5-yl]ethyl)cyclohexane-1-carboxylic acid]",100 to 1000
11,"NC(=O)C1CCC(F)(CCC2c3c(F)cccc3-c3cncn32)CC1 (single isomer, unassigned) [Compound 81a, 4-fluoro-4-[2-[6-fluoro-5H-imidazo[4,3-a]isoindol-5-yl]ethyl]cyclohexane-1-carboxamide]",100 to 1000
12,"NC(=O)C1CCC(F)(CCC2c3c(F)cccc3-c3cncn32)CC1 (single isomer, unassigned) [Compound 81b, 4-fluoro-4-[2-[6-fluoro-5H-imidazo[4,3-a]isoindol-5-yl]ethyl]cyclohexane-1-carboxamide]",> 1000
13,"OC(CC1c2c(Cl)cccc2-c2cncn21)C1(F)CCCCC1 (single isomer, unassigned) [Compound 83a, 2-[6-chloro-5H-imidazo[4,3-a]isoindol-5-yl]-1-(1-fluorocyclohexyl)ethan-1-ol]",> 1000
14,"OC(CC1c2c(Cl)cccc2-c2cncn21)C1(F)CCCCC1 (single isomer, unassigned) [Compound 83b, 2-[6-chloro-5H-imidazo[4,3-a]isoindol-5-yl]-1-(1-fluorocyclohexyl)ethan-1-ol]",100 to 1000
15,"OC(CC1c2c(Cl)cccc2-c2cncn21)C1(F)CCCCC1 (single isomer, unassigned) [Compound 83c, 2-[6-chloro-5H-imidazo[4,3-a]isoindol-5-yl]-1-(1-fluorocyclohexyl)ethan-1-ol]",> 1000

# The next lines start with the values.
row,IC50 [nM],Compound
1,100 to 1000,"OC1CCC(F)(CCC2c3c(Cl)cccc3-c3cncn32)CC1 (single isomer, unassigned) [Compound 71b, 4-[2-[6-chloro-5H-imidazo[4,3-a]isoindol-5-yl]ethyl]-4-fluorocyclohexan-1-ol]"
2,< 100,"OC1CCC(F)(CCC2c3c(Cl)cccc3-c3cncn32)CC1 (single isomer, unassigned) [Compound 71d, 4-[2-[6-chloro-5H-imidazo[4,3-a]isoindol-5-yl]ethyl]-4-fluorocyclohexan-1-ol]"
3,100 to 1000,"FC1(F)CCC(F)(CCC2c3c(Cl)cccc3-c3cncn32)CC1 (single isomer, unassigned) [Compound 72b, 6-chloro-5-[2-(1,4,4-trifluorocyclohexyl)ethyl]-5H-imidazo[4,3-a]isoindole]"
4,< 100,"NC(=O)C1CCC(F)(CCC2c3ccccc3-c3cncn32)CC1 (single isomer, unassigned) [Compound 79c, 4-fluoro-4-[2-[5H-imidazo[4,3-a]isoindol-5-yl]ethyl]cyclohexane-1-carboxamide]"
5,< 100,"NC(=O)C1CCC(F)(CCC2c3ccccc3-c3cncn32)CC1 (single isomer, unassigned) [Compound 79d, 4-fluoro-4-[2-[5H-imidazo[4,3-a]isoindol-5-yl]ethyl]cyclohexane-1-carboxamide]"
6,< 100,"O=C(O)C1CCC(F)(CCC2c3c(F)cccc3-c3cncn32)CC1 (single isomer, unassigned) [Compound 80a, 4-fluoro-4-(2-[6-fluoro-5H-imidazo[4,3-a]isoindol-5-yl]ethyl)cyclohexane-1-carboxylic acid]"
7,< 100,"NC(=O)C1CCC(F)(CCC2c3c(F)cccc3-c3cncn32)CC1 (single isomer, unassigned) [Compound 81c, 4-fluoro-4-[2-[6-fluoro-5H-imidazo[4,3-a]isoindol-5-yl]ethyl]cyclohexane-1-carboxamide]"
8,< 100,"NC(=O)C1CCC(F)(CCC2c3c(F)cccc3-c3cncn32)CC1 (single isomer, unassigned) [Compound 81d, 4-fluoro-4-[2-[6-fluoro-5H-imidazo[4,3-a]isoindol-5-yl]ethyl]cyclohexane-1-carboxamide]"
9,< 100,"O=C(O)C1CCC(F)(CCC2c3ccccc3-c3cncn32)CC1 (single isomer, unassigned) [Compound 82a, 4-fluoro-4-(2-[5H-imidazo[4,3-a]isoindol-5-yl]ethyl)cyclohexane-1-carboxylic acid]"
10,< 100,"OC(CC1c2c(Cl)cccc2-c2cncn21)C1(F)CCCCC1 (single isomer, unassigned) [Compound 83d, 2-[6-chloro-5H-imidazo[4,3-a]isoindol-5-yl]-1-(1-fluorocyclohexyl)ethan-1-ol]"
